From US20260366053A1, “SYNTHESIS OF COTYLENIN AND ANALOGS THEREOF FOR THE DEVELOPMENT OF SELECTIVE MODULATORS OF 14-3-3 PROTEIN-PROTEIN INTERACTION” (priority 2022, published 2026)
“Also recorded” adds a separate entry of the source.

What was measured:
[1] = target: P450BM3 variant MERO1 L75A (Priestia megaterium, UniProt P14779, A185V/A291V/A83G/E253G/F206C/F88V/H237Q/L354V/L76A/P143S/R256S/S227R/T176I/V79A); details: role: substrate; cofactor Na2NADP 0.2 eq.; lysate, 22 °C, 16 h, pH 8.0
[2] = target: BscD (Pseudocercospora fijiensis, UniProt M2ZB93); details: role: substrate; E. coli lysates
Text: The biocatalytic use of BscD and Bsc9 was investigated for the oxidation of 20.

[3] = target: Wild-type Bsc9 (Alternaria brassicicola, UniProt D7UTD1); type: biochemical; details: for conversion: pH 8.5
[4] = tested on: MoBsc9; type: biochemical, Magnaporthe oryzae; details: for conversion: role: substrate, cosubstrate α-ketoglutarate, 1 mg scale, clarified lysate, 15 °C, 10 h, pH 8.5
[5] = target: Bsc9 “VR” (Alternaria brassicicola, UniProt D7UTD1, DEL103-114/G116R/H115V); details: role: substrate
[6] = tested on: 14-3-3sigma and the C-terminal of TASK-3; details: structural; listed as cotylenol; cited from earlier work
[7] = tested on: human myeloid leukemia cells; details: listed as cotylenol; cited from earlier work
[8] = target: P450BM3 variant MERO1 FT (MERO1 L181F V184T) (Priestia megaterium, UniProt P14779, A185T/A291V/A83G/E253G/F206C/F88V/H237Q/L182F/L354V/P143S/R256S/S227R/T176I/V79A); details: role: substrate; cofactor Na2NADP 0.2 eq.; lysate, 22 °C, 16 h, pH 8.0
[9] = tested on: 14-3-3 PPI; details: cited from earlier work
[10] = tested on: 14-3-3 proteins and their clients; details: cited from earlier work

Sequence of P450BM3 variant MERO1 L75A (P14779 whole entry L76A/V79A/A83G/F88V/P143S/T176I/A185V/F206C/S227R/H237Q/E253G/R256S/A291V/L354V): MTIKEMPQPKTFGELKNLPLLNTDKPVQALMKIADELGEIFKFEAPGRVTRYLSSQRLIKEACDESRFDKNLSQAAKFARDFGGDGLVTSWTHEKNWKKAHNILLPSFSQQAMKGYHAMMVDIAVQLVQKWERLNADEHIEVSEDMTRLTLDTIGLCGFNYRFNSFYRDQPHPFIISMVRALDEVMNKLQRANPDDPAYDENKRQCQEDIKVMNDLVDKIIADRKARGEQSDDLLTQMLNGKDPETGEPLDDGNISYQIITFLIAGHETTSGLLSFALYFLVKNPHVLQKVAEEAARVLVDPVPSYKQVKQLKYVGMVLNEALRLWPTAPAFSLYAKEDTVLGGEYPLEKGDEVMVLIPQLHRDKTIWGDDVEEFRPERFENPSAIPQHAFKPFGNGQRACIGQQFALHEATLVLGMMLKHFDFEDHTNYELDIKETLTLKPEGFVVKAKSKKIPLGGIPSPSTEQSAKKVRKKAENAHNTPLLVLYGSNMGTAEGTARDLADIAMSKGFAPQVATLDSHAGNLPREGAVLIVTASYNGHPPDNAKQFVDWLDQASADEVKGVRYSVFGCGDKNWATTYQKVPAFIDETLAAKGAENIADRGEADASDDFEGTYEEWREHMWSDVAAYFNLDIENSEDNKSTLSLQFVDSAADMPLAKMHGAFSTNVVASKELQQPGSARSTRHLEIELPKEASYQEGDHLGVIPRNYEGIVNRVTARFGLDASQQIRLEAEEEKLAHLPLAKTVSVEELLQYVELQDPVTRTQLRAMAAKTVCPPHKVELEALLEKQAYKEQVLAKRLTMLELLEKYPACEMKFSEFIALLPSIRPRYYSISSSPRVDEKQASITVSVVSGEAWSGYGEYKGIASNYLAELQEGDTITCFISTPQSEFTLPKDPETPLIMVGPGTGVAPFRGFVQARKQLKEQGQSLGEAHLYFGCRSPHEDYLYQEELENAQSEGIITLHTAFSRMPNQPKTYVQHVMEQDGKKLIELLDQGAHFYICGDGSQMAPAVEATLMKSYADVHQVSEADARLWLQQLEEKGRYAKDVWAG
Sequence of P450BM3 variant MERO1 FT (MERO1 L181F V184T) (P14779 whole entry V79A/A83G/F88V/P143S/T176I/L182F/A185T/F206C/S227R/H237Q/E253G/R256S/A291V/L354V): as the sequence (P14779 whole entry L76A/V79A/A83G/F88V/P143S/T176I/A185V/F206C/S227R/H237Q/E253G/R256S/A291V/L354V) above, with A76L, L182F, V185T counted along it

Question: Which “regioselectivity of hydroxylation at C13” value [1] does the source give for `COC[C@@]1(O)CC[C@@H]2/C1=C\[C@@]1(C)CCC(C(C)C)=C1C[C@H](O)[C@@H]2C` [Compound 4] here?
Answer: without any observable regioisomers

Question: For `COCC1=C2C[C@@]3(C)CCC(C(C)C)=C3[C@@H](O)C(=O)[C@H](C)[C@@H]2CC1` [Compound 20], which “reaction (in words)” value [2] is on record?
Answer: no reaction

Question: And the “conversion (in words)” value [3]?
Answer: moderate conversion

Question: What about the conversion [3] of the same molecule?
Answer: 43%

Question: And the conversion [4]?
Answer: 100%

Question: And the “reaction (in words)” value [5]?
Answer: no reaction

Question: What does the source list for `COCC1=C2C[C@@]3(C)CCC(C(C)C)=C3C[C@H](O)[C@H](C)[C@@H]2CC1` [Compound 23]?
Answer: selectivity (percent ratio of the desired product:total products) [3]: 43%; conversion [3]: 37%; conversion [4]: 30%

Question: Which ternary complex formation [6] does the source give for `COC[C@@]1(O)CC[C@@H]2/C1=C\[C@@]1(C)CCC(C(C)C)=C1[C@@H](O)[C@H](O)[C@@H]2C` [Compound 3] here?
Answer: form a ternary complex with 14-3-3sigma and the C-terminal of TASK-3; also recorded: a crystal structure of cotylenol in complex with 14-3-3s and a synthetic C-terminal hexapeptide of TASK-3 has also been solved

Question: What about the cytotoxicity [7] of the same molecule?
Answer: cytotoxic toward human myeloid leukemia cells; also recorded: moderate cytotoxicity on human myeloid leukemia cells

Question: With `COCC1=C2C[C@@]3(C)CCC(C(C)C)=C3CC(=O)[C@H](C)[C@@H]2CC1` [Compound 8] as the molecule, how does the regioselectivity of oxidation [8] read?
Answer: primarily at C4

Question: Which phytotoxicity [9] does the source give for `C=CC(C)(C)OC[C@H]1O[C@H](O[C@@H]2C3=C([C@H](C)COC(C)=O)C[C@H](O)[C@]3(C)/C=C3/[C@@H](COC)CC[C@H]3[C@@H](C)[C@H]2O)[C@H](O)[C@@H](OC(C)=O)[C@@H]1O` [Compound 2] here?
Answer: phytotoxins that target the 14-3-3 PPI

Question: And the molecular glue activity [10]?
Answer: capable of acting as molecular glues

Question: Which “improvement in assay yield of 21” value ([4]; role: product, relative to Bsc9) does the source give for `COC[C@@]1(O)CC[C@@H]2/C1=C\[C@@]1(C)CCC(C(C)C)=C1[C@@H](O)C(=O)[C@@H]2C` [Compound 21] here?
Answer: ca. two-fold

Question: With `CC(C)C1=C2[C@@H](O)C(=O)[C@H](C)[C@@H]3CCC(=O)/C3=C/[C@@]2(C)CC1` [Compound 22] as the molecule, how does the “conversion (in words)” value [3] read?
Answer: no further conversion
